Assay results published in patent US20030181434A1, “AlphaAED and betaAED regulation of nuclear transcription, gene regulation, and/or gene expression” (priority 2002, published 2003).

Assays:
PPARγ = assay: Western blot of PPARγ level in Dunning R3327 AT-1 rat prostate tumors after treatment; type: in vivo; settings: untreated control = 100 R.A.U.
Excerpt: (§1) Dunning R3327, AT-1, rat prostate cancer, is a completely hormone-refractory tumor cell line. […] It lacks measurable quantities of receptor for androgens and estrogens. The clinical behavior of this tumor is not influenced by presence or absence of sex steroids (Isaacs et al, Prostate 9:261-281 (1986)).
(§2) After an initial passage in young male rats, the tumor was implanted dorsally into young intact (not castrated) male Copenhagen-Fischer rats (Copenhagen, Denmark) of approximately 250 grams. Tumor transplants were allowed to grow until palpable and visible and reached a mean size of 10 mm in diameter prior to treatment. The vehicle for the drug was Polyethylene glycol 400 and ethanol 1:1. The drug was injected adjacent to the tumor. […]
(§3) Thawed tumors were homogenized in ice cold lysis-buffer (160 mM NaCl, 10 mM […], 2 mM […], 0.5% Triton X-100, 100 μg/ml phenylmetylsulfonyl fluoride, 1 μg/ml leupeptin and 2 μg/ml aprotinin), placed on ice for 15 minutes and following clarification centrifuged for 10 minutes at 13,000 g. Protein content of homogenates were determined by Lowry assay Q.
(§4) Protein in lysates ([…]) were separated by electrophoresis using 8% SDS-PAGE, the isolated proteins were transferred onto a nitrocellulose membrane (Amersham) in a trans-blot electrophoretic transfer cell (Bio-Rad Laboratories). […] Optical density was measured densitometrically. […]

COX-2 = assay: Western blot of COX-2 level in Dunning R3327 AT-1 rat prostate tumors after treatment; type: in vivo; settings: untreated control = 100 R.A.U.
Excerpt: as §1, §2, §3, §4

NF-κB = test system: NF-κB
Excerpt: as §1, §2, §3, §4

[1] = AT-1 tumor samples, 96 hours after single 10 mg dose injected adjacent to tumor
[2] = AT-1 tumor samples at 19 days, βAED single 80 mg dose, or αAED 10 mg then βAED 80 mg after 96 hours

| Structure (SMILES) | PPARγ level, mean value (PPARγ; [1]) [R.A.U.] | COX-2 level, mean value (COX-2; [1]) [R.A.U.] | effect on levels of NF-κB (in words) (NF-κB; finding stated in the description, no value given) | PPARγ level, mean value (PPARγ; [2]) [R.A.U.] | COX-2 level, mean value (COX-2; [2]) [R.A.U.] | NF-κB level, mean value (NF-κB; AT-1 tumor samples at 19 days after single 80 mg dose, untreated control = 100 R.A.U.) [R.A.U.] |
| --- | --- | --- | --- | --- | --- | --- |
| C[C@]12CC[C@H]3[C@@H](CC=C4C[C@@H](O)CC[C@@]43C)[C@@H]1CC[C@H]2O [αAED, Δ5-Androstene-3β, 17α-diol] | 190 | 203 | increases | – | – | – |
| C[C@]12CC[C@H]3[C@@H](CC=C4C[C@@H](O)CC[C@@]43C)[C@@H]1CC[C@@H]2O [βAED, Δ5-Androstene-3β, 17β-diol] | – | – | – | 47 | 135 | 68±13.6 |
